In patent publication US12643906B2, “Fused aza-heterocyclic amide compound and use thereof” (CSPC ZHONGQI PHARMACEUTICAL TECHNOLOGY (SHIJIAZHUANG) CO., …, priority 2020, dated 2026):
Where two headings read alike, the source gives them in different places.

Legend:
TRKA(G667C) = biological target: T1, TRKA(G667C) (Homo sapiens, UniProt P04629, G667C); test: HTRF kinase inhibition assay, TRKA(G667C); format: biochemical
T1 construct: purchased signalchem
Description: (§1) The compound to be tested with a certain concentration gradient and an enzyme solution were successively added into a plate (kinase buffer (1× kinase buffer (Cisbio, Cat #62EZBFDD), pH 7.5; 5 mM MgCl2, 1 mM DTT) was added into negative control wells), and the compound plate was centrifuged at 1000 rpm for 30 seconds. The plate was sealed and incubated in a Constant Temperature Incubator at 25° C. for 30 min. A substrate solution containing TK-Sub-biotin (Cisbio, Cat #61TKOBL) and ATP (Sigma, Cat #R0441) was prepared, the substrate solution was added into a 384-well plate, and the plate was centrifuged at 1000 rpm for 30 seconds. The plate was sealed and incubated in a Constant Temperature Incubator at 25° C. for 60 min.
(§2) TK antibody and XL665 were diluted, mixed and added into the assay plate, and the plate was centrifuged at 1000 rpm for 30 seconds. The plate was sealed and incubated in a Constant Temperature incubator Incubator at 25° C. for 60 min. The assay plate was placed on an Envision reader for reading. (HTRF 665/615 ratio: signal value at 665 nm/signal value at 615 nm) Inhibition=(rationegative control well−ratiocompound well)/(rationegative control well−ratioenzyme-free control well)×100% 1.3 Data Analysis and Curve Fitting
(§3) Data were fitted in XLFit excel add-in version 5.4.0.8 to obtain IC50 values.

[1] = test system: TRK, p-TRK, p-PLCγ1, p-AKT in Ba/F3 LMNA-NTRK1-G595R tumor tissues; test: In vivo mechanism study, western blot of tumor tissues; parameters: species or system NuNu mice; details: 100 mg/kg gavage, tumor taken 0.25-24 h
Description: A total of 3 mice in the control group were selected, and tumor tissues were taken and cryopreserved 4 h after the administration of the vehicle. The compound No. 4 of the present disclosure was administered to other groups at 100 mg/kg, and tumor tissues was taken at 0.25 h, 1 h, 4 h, 8 h, 12 h and 24 h for cryopreservation.
A certain mass of tumor tissue was taken and added into a corresponding volume of protein lysate (RIPA lysate (Thermo Fisher, Cat. No. 89900): protease inhibitor (cOmplete, Mini, EDTA-free, EASYpack; Roche, Cat. No. 04693159001): phosphatase inhibitor (PhosStop, EASY pack; Roche, Cat. No. 04906837001)=8:1:1), homogenized and lysed in ice bath for 30 min. The mixture was subjected to high-speed centrifugation at low temperature, and then the supernatant was taken for BCA protein quantification (procedure according to the BCA protein quantification kit (Qiagen, Cat. No. PA115-01)). Finally, after the protein concentration was adjusted to be uniform by lysate, loading buffer was added, and the mixture was boiled at 100° C. for 10 min.
4-20% of 10-well prefabricated gel was adopted; the sample loading amount was 100 μg; 140 V electrophoresis was performed for 1-1.5 h; the 300 mA wet-transfer was performed for 1.5-2 h; the membrane was blocked with 5% BSA for 2-3 h; incubating with primary antibody overnight at 4° C. […]

TRKA(G595R) = biological target: T2, TRKA(G595R) (Homo sapiens, UniProt P04629, G595R); test: HTRF kinase inhibition assay, TRKA(G595R); format: biochemical
T2 construct: purchased signalchem
Description: as §1, §2, §3

TRKC(G623R) = biological target: T3, TRKC(G623R) (Homo sapiens, UniProt Q16288, G623R); test: HTRF kinase inhibition assay, TRKC(G623R); format: biochemical
T3 construct: purchased Bioduro
Description: as §1, §2, §3

[2] = test system: Ba/F3 LMNA-NTRK1-G595R model; details: gavage
TRKC = biological target: T4, TRKC (Homo sapiens, UniProt Q16288); test: HTRF kinase inhibition assay, TRKC; format: biochemical
T4 construct: purchased Bioduro
Description: as §1, §2, §3

ALK = biological target: T5, ALK (Homo sapiens, UniProt Q9UM73); test: Kinase inhibition assay with fluorescein labeled peptide, ALK; format: biochemical
T5 construct: purchased Carna 08-105
Description: Compounds were diluted to a certain concentration in DMSO with 4-fold gradients. The compound with a certain concentration, an enzyme solution and DMSO were added into a 384-well plate, and the plate was incubated at room temperature for 10 min. […] The plate was subjected to reading.

TRKC(G696A) = biological target: T6, TRKC(G696A) (Homo sapiens, UniProt Q16288, G696A); test: HTRF kinase inhibition assay, TRKC(G696A); format: biochemical
T6 construct: purchased Bioduro
Description: as §1
TK antibody and XL665 were diluted, mixed and added into the assay plate, and the plate was centrifuged at 1000 rpm for 30 seconds. The plate was sealed and incubated in a Constant Temperature incubator Incubator at 25° C. for 60 min. The assay plate was placed on an Envision reader for reading.
as §3

SMILES: O=C(Nc1ccc(N2CCN(C(=O)CO)CC2)cc1)c1cnn2ccc(N3C[C@@H](F)C[C@@H]3c3cc(F)ccc3F)nc12 [Compound 4, 5-((2R,4S)-2-(2,5-difluorophenyl)-4-fluoropyrrolidin-1-yl)-N-(4-(4-(2-hydroxyacetyl)piperazin-1-yl)phenyl)pyrazolo[1,5-a]pyrimidine-3-carboxamide]
- IC50 (TRKA(G667C)): 0.183 nM
- phosphorylation of p-PLCγ1/PLCγ1 and p-AKT/AKT in tumor tissues [1]: effectively inhibit
- protein level of TRK and p-TRK in tumor tissues [1]: significantly reduce
- IC50 (TRKA(G595R)): < 0.169 nM
- IC50 (TRKC(G623R)): 0.205 nM
- Number of animals (Survival/total) ([2]; 50 mg/kg): (6/6)
- Rate of weight gain (%) ([2]; 50 mg/kg): 10.66%
- TGI (%) ([2]; 50 mg/kg): 136.9%
- Tumor volume (mm^3) ([2]; 50 mg/kg): 15.7 ± 12.6 mm^3
- Tumor weight ([2]; 50 mg/kg): 0.02 ± 0.01 g
- Tumor weight inhibition rate (%) ([2]; 50 mg/kg): 96.16%
- Number of animals (Survival/total) ([2]; 100 mg/kg): (6/6)
- Rate of weight gain (%) ([2]; 100 mg/kg): 8.32%
- TGI (%) ([2]; 100 mg/kg): 138.0%
- Tumor volume (mm^3) ([2]; 100 mg/kg): 11.3 ± 9.7 mm^3
- Tumor weight ([2]; 100 mg/kg): 0.02 ± 0.01 g
- Tumor weight inhibition rate (%) ([2]; 100 mg/kg): 96.83%
- IC50 (TRKC): 0.443 nM
- IC50 (ALK): 22 nM
- IC50 (TRKC(G696A)): 0.383 nM
